Assays:
[1] = In vivo biodistribution and regional brain uptake in rats; conditions: male SD rats, i.v.
PDE10A = conditions: unlabeled compounds; cited from earlier work

Row | SMILES | Biodistribution, blood ([1]; 5 min p.i.) [%ID/gram] | Biodistribution, cerebellum ([1]; 5 min p.i.) [%ID/gram] | Biodistribution, fat ([1]; 5 min p.i.) [%ID/gram] | Biodistribution, heart ([1]; 5 min p.i.) [%ID/gram] | Biodistribution, kidney ([1]; 5 min p.i.) [%ID/gram] | Biodistribution, liver ([1]; 5 min p.i.) [%ID/gram] | Biodistribution, lung ([1]; 5 min p.i.) [%ID/gram] | Biodistribution, muscle ([1]; 5 min p.i.) [%ID/gram] | Biodistribution, striatum ([1]; 5 min p.i.) | Biodistribution, total brain ([1]; 5 min p.i.) [%ID/gram] | Biodistribution, blood ([1]; 30 min p.i. (control)) [%ID/gram] | Biodistribution, cerebellum ([1]; 30 min p.i. (control)) [%ID/gram] | Biodistribution, fat ([1]; 30 min p.i. (control)) [%ID/gram] | Biodistribution, heart ([1]; 30 min p.i. (control)) [%ID/gram] | Biodistribution, kidney ([1]; 30 min p.i. (control)) [%ID/gram] | Biodistribution, liver ([1]; 30 min p.i. (control)) [%ID/gram] | Biodistribution, lung ([1]; 30 min p.i. (control)) [%ID/gram] | Biodistribution, muscle ([1]; 30 min p.i. (control)) [%ID/gram] | Biodistribution, striatum ([1]; 30 min p.i. (control)) | Biodistribution, total brain ([1]; 30 min p.i. (control)) [%ID/gram] | other results
1 | Cn1cc(-c2ccncc2)c(-c2ccc(OCc3ccc4cc(O[11CH3])ccc4n3)cc2)n1 [[^11C]3, 6-(methoxy-^11C)-2-((4-(1-methyl-4-(pyridin-4-yl)-1H-pyrazol-3-yl)phenoxy)methyl)quinoline] | 0.282 ± 0.025 | 0.251 ± 0.031 | 0.139 ± 0.038 | 0.416 ± 0.026 | 1.333 ± 0.282 | 5.357 ± 0.989 | 0.744 ± 0.241 | 0.151 ± 0.027 | 0.293 ± 0.075 ^b %ID/gram | 0.249 ± 0.037 | 0.275 ± 0.041 | 0.090 ± 0.018 | 0.221 ± 0.060 | 0.264 ± 0.032 | 0.883 ± 0.123 | 3.172 ± 0.606 | 0.389 ± 0.082 | 0.175 ± 0.009 | 0.160 ± 0.023 ^a %ID/gram | 0.105 ± 0.011 | Biodistribution, blood ([1]; 60 min p.i.): 0.210 ± 0.023 %ID/gram; Biodistribution, cerebellum ([1]; 60 min p.i.): 0.066 ± 0.008 %ID/gram; Biodistribution, fat ([1]; 60 min p.i.): 0.135 ± 0.026 %ID/gram; Biodistribution, heart ([1]; 60 min p.i.): 0.182 ± 0.020 %ID/gram; Biodistribution, kidney ([1]; 60 min p.i.): 0.637 ± 0.052 %ID/gram; Biodistribution, liver ([1]; 60 min p.i.): 1.724 ± 0.510 %ID/gram; Biodistribution, lung ([1]; 60 min p.i.): 0.249 ± 0.015 %ID/gram; Biodistribution, muscle ([1]; 60 min p.i.): 0.129 ± 0.006 %ID/gram; Biodistribution, striatum ([1]; 60 min p.i.): 0.089 ± 0.014 ^a %ID/gram; Biodistribution, total brain ([1]; 60 min p.i.): 0.074 ± 0.005 %ID/gram
2 | Cn1ncc(-c2ccncc2)c1-c1ccc(OCc2cc(O[11CH3])c3ccccc3n2)cc1 [[^11C]4, 4-(methoxy-^11C)-2-((4-(1-methyl-4-(pyridin-4-yl)-1H-pyrazol-5-yl)phenoxy)methyl)quinoline] | 0.099 ± 0.015 | 0.094 ± 0.017 | 0.066 ± 0.016 | 0.335 ± 0.026 | 1.744 ± 0.316 | 3.312 ± 0.494 | 0.643 ± 0.196 | 0.146 ± 0.027 | 0.151 ± 0.033 ^a %ID/gram | 0.091 ± 0.017 | 0.067 ± 0.006 | 0.024 ± 0.007 | 0.139 ± 0.027 | 0.132 ± 0.019 | 0.645 ± 0.088 | 4.430 ± 0.481 | 0.156 ± 0.020 | 0.093 ± 0.010 | 0.083 ± 0.010 ^a %ID/gram | 0.025 ± 0.004 | Biodistribution, blood ([1]; 60 min p.i.): 0.067 ± 0.011 %ID/gram; Biodistribution, cerebellum ([1]; 60 min p.i.): 0.015 ± 0.003 %ID/gram; Biodistribution, fat ([1]; 60 min p.i.): 0.139 ± 0.058 %ID/gram; Biodistribution, heart ([1]; 60 min p.i.): 0.103 ± 0.012 %ID/gram; Biodistribution, kidney ([1]; 60 min p.i.): 0.575 ± 0.075 %ID/gram; Biodistribution, liver ([1]; 60 min p.i.): 4.588 ± 0.577 %ID/gram; Biodistribution, lung ([1]; 60 min p.i.): 0.107 ± 0.016 %ID/gram; Biodistribution, muscle ([1]; 60 min p.i.): 0.052 ± 0.009 %ID/gram; Biodistribution, striatum ([1]; 60 min p.i.): 0.037 ± 0.004 ^a %ID/gram; Biodistribution, total brain ([1]; 60 min p.i.): 0.015 ± 0.002 %ID/gram
3 | COc1cc(COc2ccc(-c3nn(C)cc3-c3ccncc3)cc2)nc2ccccc12 [Compound 2] |  |  |  |  |  |  |  |  |  |  |  |  |  |  |  |  |  |  |  |  | IC50 (PDE10A): 0.28 ± 0.06 nM

Source: paper PMC4054929 (Bioorganic & medicinal chemistry, 2014)
